From patent publication US10337071B2, “Oncogene NRF2” (National Cancer Center, priority 2008, dated 2019)

Assays:
Assay type in all cases: cell-based
[1] = tested on: KYSE-180 esophageal cancer cell line (NRF2 gene mutation); assay: Growth suppression by dsRNA against NRF2, MTS assay; conditions: KYSE-180, 72 hours, vs control dsRNA
Experimental: (§1) NRF2 gene expression was suppressed by dsRNA for the esophageal cancer cell lines that have NRF2 gene mutation (KYSE-50 and KYSE-180). Esophagus cancer cell lines were seeded into 96 well plates at 5000 cells/well, and control dsRNA (ON-TARGET plus Non-targeting Pool, Dharmacon, D-001810-10) or dsRNA against NRF2 (NRF2 dsRNA) (5′-[…]-3′ (SEQ ID NO 20) and 5′-p[…]-3′ (SEQ ID NO 21)) were introduced using Lipofectamine (Lipofectamine RNAiMax, Invitrogen). Then they were incubated at 37 degrees C. for 72 hours. Then, the number of viable cells was determined by a MTS assay for the NADH activity (CellTiter 96 Aqueous One Solution Cell Proliferation Assay, Promega).

[2] = tested on: KYSE-50 esophageal cancer cell line (NRF2 gene mutation); assay: as above; conditions: KYSE-50, 72 hours, vs control dsRNA
Experimental: as §1

[3] = tested on: esophageal cancer cell lines with NRF2 gene abnormality (KYSE-50, KYSE-70, KYSE-180); assay: Suppression of proliferation by rapamycin treatment, MTS assay; conditions: rapamycin 1, 5, 10 nM, 72 hours
Experimental: (§2) Suppression of proliferation by rapamycin treatment was examined for the esophageal cancer cell lines without NRF2 gene abnormality (KYSE-30, KYSE-140, KYSE-170, KYSE-270) and for the cell lines with NRF2 gene abnormality (KYSE-50, KYSE-70, KYSE-180). The 7 esophageal cancer cell lines were seeded onto 96 well plates at 5000 cells/well, and 0, 1, 5, and 10 nM of rapamycin were added. After incubated at 37 degrees C. for 72 hours, viable cells were counted based on the NADH activity (MTS assay, CellTiter 96 Aqueous One Solution Cell Proliferation Assay, Promega).

[4] = tested on: lung cancer cell lines with NRF2 gene abnormality (LK-2, EBC-1); assay: as above
Experimental: as §2
(§3) In addition, growth suppression effect of rapamycin treatment to the lung cancer cell lines without NRF2 gene abnormality (SQ-5, QG-56) or with NRF2 gene abnormality (LK-2, EBC-1) and to the head and neck cancer cell lines without NRF2 gene abnormality (HO-1-N-1, HSC2) or with NRF2 gene abnormality (HO-1-u-1) were also examined by similar method for the above esophageal cancer cell lines.

[5] = tested on: head and neck cancer cell lines with NRF2 gene abnormality (HO-1-u-1); assay: as above
Experimental: as §2, §3

| Molecule | suppressive effect on proliferation compared with the control [1] [%] | suppressive effect on proliferation compared with the control [2] [%] | cell proliferation, ratio of cell counts, % of the control (0 nM = 100%) [3] | cell proliferation, ratio of cell counts, % of the control (0 nM = 100%) [4] | cell proliferation, ratio of cell counts, % of the control (0 nM = 100%) [5] |
| --- | --- | --- | --- | --- | --- |
| NRF2 dsRNA: dsRNA against NRF2: 5'-UAAAGUGGCUGCUCAGAAUUU-3' (SEQ ID NO 20) and 5'-pAUUCUGAGCAGCCACUUUAUU-3' (SEQ ID NO 21) (second strand carries 5' phosphate, otherwise chemistry not given here, further chemistry not given here) | 38 | 26 |  |  |  |
| CO[C@H]1C[C@@H]2CC[C@@H](C)[C@@](O)(O2)C(=O)C(=O)N2CCCC[C@H]2C(=O)O[C@H]([C@H](C)C[C@@H]2CC[C@@H](O)[C@H](OC)C2)CC(=O)[C@H](C)/C=C(\C)[C@@H](O)[C@@H](OC)C(=O)[C@H](C)C[C@H](C)/C=C/C=C/C=C/1C [rapamycin] |  |  | about 70% | 62-70% | about 70% |
